Test results taken from BigSolDB 2.1.

Nc1cnc(Br)cn1
solubility (mole fraction)
Details	in DMF	in acetone	in ethanol	in ethylene glycol	in isopropanol	in methanol	in n-butanol	in n-propanol	in propylene glycol	in water
278.15 K	0.00849	0.00684	0.00144	0.000694	0.00282	0.000887	0.00541	0.00353	0.00113	1.76e-05
283.15 K	0.00942	0.0076	0.00158	0.000773	0.00308	0.000981	0.00601	0.00392	0.00125	1.93e-05
288.15 K	0.0106	0.00856	0.00174	0.000869	0.0034	0.00108	0.00678	0.00445	0.00139	2.18e-05
293.15 K	0.0119	0.00961	0.00194	0.00097	0.0038	0.00121	0.00757	0.00497	0.00153	2.43e-05
298.15 K	0.0133	0.0108	0.00217	0.00109	0.00429	0.00135	0.00853	0.00563	0.00173	2.73e-05
303.15 K	0.0149	0.012	0.00243	0.00121	0.00477	0.00151	0.00953	0.00625	0.00192	3.08e-05
308.15 K	0.0165	0.0134	0.00272	0.00135	0.00531	0.00167	0.0106	0.00696	0.00216	3.42e-05
313.15 K	0.0185	0.0149	0.00308	0.00149	0.00594	0.00185	0.0118	0.00774	0.00239	3.83e-05
318.15 K	0.0205	0.0165	0.00345	0.00166	0.0066	0.00204	0.0131	0.00858	0.00266	4.27e-05
323.15 K	0.0227	0.0183	0.0039	0.00184	0.00735	0.00225	0.0145	0.0095	0.00294	4.77e-05
